Source: publication PMC8996404, “The pharmacokinetics of buserelin after intramuscular administration in pigs and cows” (BMC Veterinary Research, 2022)
Where two headings read alike, the source gives them in different places.

Key:
[1] = pigs, cited from earlier work
Description: (§1) The Vd was 80.49 ± 43.88 L for pigs and 839.88 ± 174.77 L for cows, which is larger than pigs (304 ± 112 mL/kg) at a single dose 1 mg i.v., and dogs (50.1 ± 2.4 mL/kg) at a single dose 5 mg i.v.. High plasma concentration, high bonding rate, means more drugs cannot across the membrane and barrier. Therefore, binding changes can affect the distribution of drugs. Because protein binding of buserelin is about 15% [2], it is proportional to the body volume and body weight and animals using in this study had larger volume of body water or extracellular water. It has been repo ...

[2] = test system: pyroglutamyl-amino-peptidase; conditions: enzyme can be isolated from mammalian liver ref 2; cited from earlier work
Description: as §1

[3] = dogs, cited from earlier work
Excerpt: (§2) High plasma concentration, high bonding rate, means more drugs cannot across the membrane and barrier. Therefore, binding changes can affect the distribution of drugs. Because protein binding of buserelin is about 15% [2], it is proportional to the body volume and body weight and animals using in this study had larger volume of body water or extracellular water. It has been repo ...

[4] = Plasma pharmacokinetics of buserelin after i.m. administration in cows; type: in vivo; conditions: for MRT: cow, 3 mg per cow
Description: The UPLC-MS/MS system (Waters Acquity UPLC and Waters Quattro Premier, Waters Co., USA) and the chromatographic column (Agilent Poroshell 120 EC-C18, 4.6 × 100 mm, 2.7 µm) were used in this study. The separation was performed with 0.1% formic acid in water (mobile phase solvent A) and 0.1% formic acid in acetonitrile (solvent B) with a flow rate of 0.6 mL/min. The gradient elution program was optimized as follow: 75% A (0–0.5 min), 10% A (5–7 min) 75% A (7.1–10 min). The sample was injected at a volume of 5 µL at 30℃. The mass spectrometer was operated in the positive ion detection mode with the capillary voltage set at 5.5 kV and the source temperature was 550 ℃. Others parameters were as follows: nebulizer gas pressure was 55 psi, ion source gas pressure was 60 psi, curtain gas pressure was 30 psi, declustering potential was 68 V, entrance potential was 10 V, and collision cell exit potential was 13 V.
Five healthy adult female Danish Landrance × Yorkshire × Duroc pigs (100–120 days, 50–60 kg, Ningbo Kuangdai Husbandry Co., Ltd. Ningbo China) and five healthy adult female Holstein cows (1.5–2 years, 440–500 kg, Ningbo Milk Group Co., Ltd. Ningbo China) were randomly selected to use in this research. All animals were examined by a local veterinarian with regard to physical, hematologic, and biochemical conditions during the two-week adaptation period. The two protocols used in this study were reviewed and approved by the Institutional Animal Care and Use Committee of China Agricultural University (pigs: 11605–20-D-007; cows: 11605–20-B-003). Buserelin injection solution (0.5 mg/mL, 10 mL) was acquired from Ningbo Sansheng Pharmaceutical Company. In order to avoid introducing bias results from feeding, each animal in the study fasted for approximately 12 h. Each pig received 1 mg buserelin injection solution (about 0.018 mg/kg), and each cow received 3 mg (about 0.0064 mg/kg). During the entire experiment, water was available ad libitum. Adverse symptoms were recorded and evaluated. Blood samples of 5 mL were collected into heparinized tube (pigs: anterior vena cava; cows: vena jugularis interna) at 0, 0.083, 0.167, 0.333, 0.5, 0.75, 1, 1.5, 2, 3, 4, 5, 6, 7, and 8 h after i.m. administration. The blood samples were centrifuged for 5 min at 2775 × g. Plasma samples were stored in -20 ℃ until analysis (within 21 days of collection).
Frozen plasma samples were thawed and vortexed, and 500 µL plasma and 1 mL 0.1% formic acid in acetonitrile were mixed together. After 10 min ultrasonic treatment, the samples were centrifuged for 10 min at 11,100 × g. The upper layer was collected and the remainder was treated twice. These two supernatants were added together, the samples were evaporated via nitrogen gas at 40 ℃, and redissolved in 2.5 mL 0.1% formic acid in acetonitrile-0.1% formic acid in water (1:3 v/v). After filtered through a 0.22 µm microbore cellulose membrane, the samples were collected and bottled to UPLC-MS/MS system for analysis.
Plasma concentrations of buserelin were analyzed using the established method, and the pharmacokinetic parameters were calculated via a non-compartmental analysis model 200 in WinNonlin software (WinNolin 8.1.0 Certara, Pharsight, Mountain View, CA, USA) and expressed in mean ± standard deviation (SD), and no statistical tests were applied.

[5] = cited from earlier work
Excerpt: as §2, with “After being approved by the European Medicines Agency (EMA) in 1995 [1], there are some pharmacokinetic studies of buserelin been reported in humans and rats following subcutaneous (s.c.), intranasal (i.n.), or intravenous (i.v.) routes. […] High” for “High”

[6] = female, Holstein, im, single i.m. dose 3 mg per cow, plasma, mean ± SD, n = 5
[7] = single i.m. dose 3 mg per cow, plasma, mean ± SD, n = 5

CCNC(=O)[C@@H]1CCCN1C(=O)[C@H](CCCNC(=N)N)NC(=O)[C@H](CC(C)C)NC(=O)[C@@H](COC(C)(C)C)NC(=O)[C@H](Cc1ccc(O)cc1)NC(=O)[C@H](CO)NC(=O)[C@H](Cc1c[nH]c2ccccc12)NC(=O)[C@H](Cc1cnc[nH]1)NC(=O)[C@@H]1CCC(=O)N1 [buserelin, Buserelin]
clearance ([1]; 1 mg per pig i.v. injection, no reference given): 2.0 ± 0.4 mL/min/kg
Vd ([1]; single dose 1 mg i.v. ref 14): 0.304 ± 0.112 L/kg
t1/2 ([1]; single dose of 1 mg i.v. injection ref 14): 1.72 ± 0.333 h
Degradation by pyroglutamyl-amino-peptidase [2]: rapidly degraded
clearance ([3]; 5 mg per dog i.v. injection ref 18): 1.7 ± 0.10 mL/min/kg
tmax ([3]; s.c. at a dose of 3.3 mg ref 18): 4 h
Vd ([3]; single dose 5 mg i.v. ref 18): 0.0501 ± 0.0024 L/kg
t1/2 ([3]; single dose of 5 mg i.v. injection ref 18): 0.94 ± 0.0163 h
MRT ([4]; female, Holstein, plasma, im, single i.m. dose 3 mg per cow, plasma, mean ± SD, n = 5, read-out: MRT0-t): 1.85 ± 0.56 h
MRT ([4]; female, Holstein, plasma, im, single i.m. dose 3 mg per cow, plasma, mean ± SD, n = 5, read-out: MRT0-∞): 2.16 ± 0.7 h
tmax ([4]; female, Holstein, im, single i.m. dose 3 mg per cow (about 0.0064 mg/kg), plasma, UPLC-MS/MS, non-compartmental, mean ± SD, n = 5): 1.05 ± 0.27 h
AUC(0-t) ([4]; female, Holstein, im, single i.m. dose 3 mg per cow, plasma, 0 to last measurement point, mean ± SD, n = 5): 5.63 ± 1.86 ng·h/mL
Cmax ([4]; female, Holstein, im, single i.m. dose 3 mg per cow, plasma, UPLC-MS/MS, non-compartmental, mean ± SD, n = 5): 2.68 ± 0.36 ng/mL
AUC(0-inf) [4, 6]: 5.99 ± 2.01 ng·h/mL
CL/F [4, 6]: 9080 mL/min
Vd/F [4, 6]: 840 ± 175 L
half-life ([4]; female, Holstein, im, single i.m. dose 3 mg per cow, plasma, non-compartmental, mean ± SD, n = 5, read-out: t1/2 (elimination half-time) (converted)): 1.13 ± 0.3 h
Cmax/D ([4]; single i.m. dose 3 mg per cow (about 0.0064 mg/kg), rate of Cmax to dosage, mean ± SD, n = 5): 420.35 ± 58.40 ng/mL/mg/kg
Adverse effects ([4]; single i.m. dose 3 mg per cow, n = 5): No adverse effects were observed
AUMClast [4, 7]: 11.23 ± 6.89 h × h × ng/mL
ka (absorption rate constant) [4, 7]: 0.58 ± 0.17 h⁻¹
tmax ([5]; health volunteers, single dose 5 µg s.c. ref 3): 0.7 h
tmax ([5]; health volunteers, single dose 150 µg i.n. ref 3): 0.967 h
tmax ([5]; health volunteers, single dose 300 µg i.n. ref 3): 0.73 h
tmax ([5]; health volunteers, single dose 450 µg i.n. ref 3): 0.647 h
tmax ([5]; health volunteers, single dose 500 µg i.v. ref 3): 0.333 h
elimination half-time ([5]; human, regardless of the administration route ref 2, 3): 72 to 120 min
tmax ([5]; rats (anesthetized), single dose of 0.1 mg/kg i.n. ref 18): 1.92 ± 0.42 h
rapid initial half time / t1/2 ([5]; rats, i.v. ref 1): 5 min
t1/2 ([5]; rats, single dose of 6 mg/kg s.c. injection ref 13): 0.7 h
